Laboratory results as given in PubChem BioAssay AID1963986 (Molecular Pharmacology Branch, DTP, NCI, 2024).
pIC50: −log10 of the molar value.

System: 171881-019-R-J1-PDC tumor spheroid viability
Test: Anticancer human tumor 171881-019-R-J1-PDC patient-derived invasive breast carcinoma cell line growth inhibition [PI3K]
Conditions: spheroids with HUVEC and MSC; for pIC50: curve of first compound; for viability, T/C: stronger effect = lower value
Outline: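 We assembled tumor spheroids that included a stromal compartment of HUVEC and MSCs, then exposed them to targeted agents alone and together with PI3K pathway inhibitors. Concentration series descended by half-log from clinically achievable Cmax levels. Viability served as the endpoint.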
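Also: spheroids exposed to compound for 7 days before viability read.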
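For viability, T/C in this document: 100% = DMSO vehicle-treated spheroids.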

Structure (SMILES): CC(C)NCC(C(=O)N1CCN(c2ncnc3c2C(C)CC3O)CC1)c1ccc(Cl)cc1 (configuration not stated) + COc1c(OCCCN2CCOCC2)ccc2c3n(c(=NC(=O)c4cnc(N)nc4)nc12)CCN3
- pIC50 (second compound 0.00316 µM): 6.70
- pIC50 (second compound 0.01 µM): > 7.50
- pIC50 (second compound 0.0316 µM): > 7.50
- pIC50 (second compound 0.1 µM): > 7.50
- pIC50 (second compound 0.316 µM): > 7.50
- pIC50 (second compound 1 µM): > 7.50
- viability, T/C (second compound 0.00316 µM, first compound 0.0316 µM): 63.8%
- viability, T/C (second compound 0.00316 µM, first compound 0.1 µM): 57%
- viability, T/C (second compound 0.00316 µM, first compound 0.316 µM): 44.8%
- viability, T/C (second compound 0.00316 µM, first compound 1 µM): 27.6%
- viability, T/C (second compound 0.00316 µM, first compound 3.16 µM): 11.6%
- viability, T/C (second compound 0.00316 µM, first compound 10 µM): 8.17%
- viability, T/C (second compound 0.01 µM, first compound 0.0316 µM): 48.5%
- viability, T/C (second compound 0.01 µM, first compound 0.1 µM): 47%
- viability, T/C (second compound 0.01 µM, first compound 0.316 µM): 36.4%
- viability, T/C (second compound 0.01 µM, first compound 1 µM): 24.1%
- viability, T/C (second compound 0.01 µM, first compound 3.16 µM): 12.4%
- viability, T/C (second compound 0.01 µM, first compound 10 µM): 8.98%
- viability, T/C (second compound 0.0316 µM, first compound 0.0316 µM): 25%
- viability, T/C (second compound 0.0316 µM, first compound 0.1 µM): 24.9%
- viability, T/C (second compound 0.0316 µM, first compound 0.316 µM): 25.8%
- viability, T/C (second compound 0.0316 µM, first compound 1 µM): 14.4%
- viability, T/C (second compound 0.0316 µM, first compound 3.16 µM): 8.88%
- viability, T/C (second compound 0.0316 µM, first compound 10 µM): 5.68%
- viability, T/C (second compound 0.1 µM, first compound 0.0316 µM): 7.43%
- viability, T/C (second compound 0.1 µM, first compound 0.1 µM): 8.22%
- viability, T/C (second compound 0.1 µM, first compound 0.316 µM): 8.03%
- viability, T/C (second compound 0.1 µM, first compound 1 µM): 6.41%
- viability, T/C (second compound 0.1 µM, first compound 3.16 µM): 5.14%
- viability, T/C (second compound 0.1 µM, first compound 10 µM): 3.1%
- viability, T/C (second compound 0.316 µM, first compound 0.0316 µM): 1.9%
- viability, T/C (second compound 0.316 µM, first compound 0.1 µM): 2.03%
- viability, T/C (second compound 0.316 µM, first compound 0.316 µM): 2.26%
- viability, T/C (second compound 0.316 µM, first compound 1 µM): 2.16%
- viability, T/C (second compound 0.316 µM, first compound 3.16 µM): 1.57%
- viability, T/C (second compound 0.316 µM, first compound 10 µM): 1.13%
- viability, T/C (second compound 1 µM, first compound 0.0316 µM): 0.99%
- viability, T/C (second compound 1 µM, first compound 0.1 µM): 1.4%
- viability, T/C (second compound 1 µM, first compound 0.316 µM): 1.49%
- viability, T/C (second compound 1 µM, first compound 1 µM): 1.35%
- viability, T/C (second compound 1 µM, first compound 3.16 µM): 1.05%
- viability, T/C (second compound 1 µM, first compound 10 µM): 0.68%
